Where two headings read alike, the source gives them in different places. Values belong to the compound of their own block, whether it stands above or below them.
Columns and labels:
[1] = Pharmacokinetics after single oral administration to fed male beagle dogs (plasma concentrations by LC-MS, non-compartmental analysis); assay type: in vivo; settings: for bioavailability (general statement of the description): A: formulations compared with those of B or C modification, amorphous: in microsuspension form; for AUC(0-t): read-out: AUC(0–24 h); for concentration at 24 h: read-out: C(24 h)
Method: Four male beagle dogs (age 5 to 6 years, body weight 11 to 14 kg) received single oral doses of 2 mg/kg of 2-(3,5-bis-trifluoromethyl-phenyl)-N-[6-(1,1-dioxo-1λ^6-thiomorpholin-4-yl)-4-(4-fluoro-2-methyl-phenyl)-pyridin-3-yl]-N-methyl-isobutyramide form A and form B (cross-over study design). The formulation was a granulate of the finely milled compound with 20% sodium dodecyl sulfate (SDS) in gelatine capsules.
In addition, four male beagle dogs (age 4 to 7 years, body weight 11 to 14 kg) received a single oral dose of 2 mg/kg of 2-(3,5-bis-trifluoromethyl-phenyl)-N-[6-(1,1-dioxo-1λ^6-thiomorpholin-4-yl)-4-(4-fluoro-2-methyl-phenyl)-pyridin-3-yl]-N-methyl-isobutyramide form C as finely milled compound with 10% SDS in gelatine capsules. The dogs received 200 g commercial dog chow (Pal®, approx. 7% fat content) about 30 minutes before administration of the compound.
Two dogs (age 8 years, body weight 12 to 14 kg) received 5 mg/kg of 2-(3,5-bis-trifluoromethyl-phenyl)-N-[6-(1,1-dioxo-1λ^6-thiomorpholin-4-yl)-4-(4-fluoro-2-methyl-phenyl)-pyridin-3-yl]-N-methyl-isobutyramide as amorphous material orally by gavage as microsuspension. The dogs were fed before and during the experiment.
Plasma samples were drawn at several time points. 2-(3,5-bis-Trifluoromethyl-phenyl)-N-[6-(1,1-dioxo-1λ^6-thiomorpholin-4-yl)-4-(4-fluoro-2-methyl-phenyl)-pyridin-3-yl]-N-methyl-isobutyramide plasma concentrations were determined using a selective LC-MS method with a quantification limit of 10 ng/mL. Pharmacokinetic parameters (e.g. AUC, Cmax) were estimated by non-compartmental analysis using WinNonlin 3.1®.

[2] = Dynamic Vapor Sorption (DVS); assay type: physicochemical; settings: from 0 to 90% RH
Excerpt: Dynamic Vapor Sorption (DVS)

[3] = dog Charly, single oral 2 mg/kg, fed male beagle dog, cross-over, granulate with 20% SDS in gelatine capsules, 2 mg/kg
[4] = dog Lars, single oral 2 mg/kg, fed male beagle dog, cross-over, granulate with 20% SDS in gelatine capsules, 2 mg/kg
[5] = dog Lupo, single oral 2 mg/kg, fed male beagle dog, cross-over, granulate with 20% SDS in gelatine capsules, 2 mg/kg
[6] = dog Mickey, single oral 2 mg/kg, fed male beagle dog, cross-over, granulate with 20% SDS in gelatine capsules, 2 mg/kg
[7] = male, beagle, dog, plasma, po, 2 mg/kg, dog Lars, single oral 2 mg/kg, fed male beagle dog, cross-over, granulate with 20% SDS in gelatine capsules
[8] = male, beagle, dog, plasma, po, 2 mg/kg, mean, n=4, single oral 2 mg/kg, fed male beagle dogs, cross-over, granulate with 20% SDS in gelatine capsules
[9] = mean, n=4, single oral 2 mg/kg, fed male beagle dogs, cross-over, granulate with 20% SDS in gelatine capsules, 2 mg/kg
[10] = single oral 2 mg/kg, fed male beagle dogs, cross-over
[11] = male, beagle, dog, plasma, po, 2 mg/kg, mean, n=4, single oral 2 mg/kg, fed male beagle dogs, finely milled compound with 10% SDS in gelatine capsules
[12] = single oral 2 mg/kg, fed male beagle dogs
[13] = beagle, dog, plasma, po, 5 mg/kg, mean, n=2, single oral 5 mg/kg by gavage as microsuspension, fed dogs

melting point: 135 to 138 °C
Structure (SMILES): Cc1cc(F)ccc1-c1cc(N2CCS(=O)(=O)CC2)ncc1N(C)C(=O)C(C)(C)c1cc(C(F)(F)F)cc(C(F)(F)F)c1 [Example 7, 2-(3,5-Bis-trifluoromethyl-phenyl)-N-[6-(1,1-dioxo-1λ^6-thiomorpholin-4-yl)-4-(4-fluoro-2-methyl-phenyl)-pyridin-3-yl]-N-methyl-isobutyramide]

bioavailability (general statement of the description) [1]: improved bioavailability | bioavailability among the three crystalline polymorphs A, B, and C ([1]; beagle dogs, powder in gelatine capsules containing sodium dodecyl sulfate): highest bioavailability | AUC(0–24 h) [1, 3]: 3720 ng·h/mL | C(24 h) [1, 3]: 47.6 ng/mL | Cmax [1, 3]: 391 ng/mL | F [1, 3]: 24.5% | F [1, 4]: 18.2% | AUC(0–24 h) [1, 5]: 2490 ng·h/mL | F [1, 5]: 16.2% | AUC(0–24 h) [1, 6]: 2900 ng·h/mL | F [1, 6]: 17.4% | AUC(0-t) [1, 7]: 2520 ng·h/mL | concentration at 24 h [1, 7]: 28.2 ng/mL | Cmax ([1]; male, beagle, dog, plasma, po, 2 mg/kg, dog Lars, single oral 2 mg/kg, fed male beagle dog, cross-over, granulate with 20% SDS in gelatine capsules, read-out: Cmax): 744 ng/mL | concentration at 24 h ([1]; male, beagle, dog, plasma, po, 2 mg/kg, dog Lupo, single oral 2 mg/kg, fed male beagle dog, cross-over, granulate with 20% SDS in gelatine capsules): 40.3 ng/mL | Cmax ([1]; male, beagle, dog, plasma, po, 2 mg/kg, dog Lupo, single oral 2 mg/kg, fed male beagle dog, cross-over, granulate with 20% SDS in gelatine capsules, read-out: Cmax): 424 ng/mL | concentration at 24 h ([1]; male, beagle, dog, plasma, po, 2 mg/kg, dog Mickey, single oral 2 mg/kg, fed male beagle dog, cross-over, granulate with 20% SDS in gelatine capsules): 29.8 ng/mL | Cmax ([1]; male, beagle, dog, plasma, po, 2 mg/kg, dog Mickey, single oral 2 mg/kg, fed male beagle dog, cross-over, granulate with 20% SDS in gelatine capsules, read-out: Cmax): 496 ng/mL | AUC(0-t) [1, 8]: 2910 ng·h/mL | concentration at 24 h [1, 8]: 36.5 ng/mL | Cmax ([1]; male, beagle, dog, plasma, po, 2 mg/kg, mean, n=4, single oral 2 mg/kg, fed male beagle dogs, cross-over, granulate with 20% SDS in gelatine capsules, read-out: Cmax): 514 ng/mL | F [1, 9]: 19.1% | Mean Cmax, higher after form A as compared to form B [1, 10]: 1.7 fold | Mean oral bioavailability, higher after form A as compared to form B [1, 10]: 1.9 fold | reversible uptake of water (DVS) ([2]; listed as modification A): 3.1 %-w/w
Structure (SMILES): Cc1cc(F)ccc1-c1cc(N2CCS(=O)(=O)CC2)ncc1N(C)C(=O)C(C)(C)c1cc(C(F)(F)F)cc(C(F)(F)F)c1 [Form A, 2-(3,5-bis-trifluoromethyl-phenyl)-N-[6-(1,1-dioxo-1λ^6-thiomorpholin-4-yl)-4-(4-fluoro-2-methyl-phenyl)-pyridin-3-yl]-N-methyl-isobutyramide]

AUC(0–24 h) [1, 3]: 949 ng·h/mL | C(24 h) [1, 3]: 17.7 ng/mL | Cmax [1, 3]: 122 ng/mL | F [1, 3]: 6.3% | AUC(0–24 h) [1, 4]: 3880 ng·h/mL | C(24 h) [1, 4]: 51.7 ng/mL | Cmax [1, 4]: 631 ng/mL | F [1, 4]: 21% | AUC(0–24 h) [1, 5]: 1130 ng·h/mL | C(24 h) [1, 5]: 23.2 ng/mL | Cmax [1, 5]: 216 ng/mL | F [1, 5]: 6.8% | AUC(0–24 h) [1, 6]: 1330 ng·h/mL | C(24 h) [1, 6]: 21.4 ng/mL | Cmax [1, 6]: 251 ng/mL | F [1, 6]: 8.2% | AUC(0–24 h) [1, 9]: 1822 ng·h/mL | C(24 h) [1, 9]: 28.5 ng/mL | Cmax [1, 9]: 305 ng/mL | F [1, 9]: 11.0%
Structure (SMILES): Cc1cc(F)ccc1-c1cc(N2CCS(=O)(=O)CC2)ncc1N(C)C(=O)C(C)(C)c1cc(C(F)(F)F)cc(C(F)(F)F)c1 [Form B, 2-(3,5-bis-trifluoromethyl-phenyl)-N-[6-(1,1-dioxo-1λ^6-thiomorpholin-4-yl)-4-(4-fluoro-2-methyl-phenyl)-pyridin-3-yl]-N-methyl-isobutyramide]

AUC(0-t) [1, 11]: 2660 ng·h/mL | concentration at 24 h [1, 11]: 29.2 ng/mL | Cmax ([1]; male, beagle, dog, plasma, po, 2 mg/kg, mean, n=4, single oral 2 mg/kg, fed male beagle dogs, finely milled compound with 10% SDS in gelatine capsules, read-out: Cmax): 510 ng/mL | F ([1]; mean, n=4, single oral 2 mg/kg, fed male beagle dogs, finely milled compound with 10% SDS in gelatine capsules): 13.3% | mean AUC(0–24 h) compared with form A [1, 12]: approximately the same | mean Cmax compared with form A [1, 12]: approximately the same
Structure (SMILES): Cc1cc(F)ccc1-c1cc(N2CCS(=O)(=O)CC2)ncc1N(C)C(=O)C(C)(C)c1cc(C(F)(F)F)cc(C(F)(F)F)c1 [Form C, 2-(3,5-bis-trifluoromethyl-phenyl)-N-[6-(1,1-dioxo-1λ^6-thiomorpholin-4-yl)-4-(4-fluoro-2-methyl-phenyl)-pyridin-3-yl]-N-methyl-isobutyramide]

bioavailability (general statement of the description) [1]: improved bioavailability | exposure after oral administration (ranking of forms) ([1]; beagle dogs, amorphous as microsuspension): highest | concentration at 24 h ([1]; beagle, dog, plasma, oral, 5 mg/kg, mean, n=2, 5 mg/kg oral microsuspension, values normalized to 2 mg/kg): 49.2 ng/mL | AUC(0-t) ([1]; beagle, dog, plasma, po, 5 mg/kg, mean, n=2, 5 mg/kg oral microsuspension, values normalized to 2 mg/kg): 4160 ng·h/mL | Cmax ([1]; beagle, dog, plasma, po, 5 mg/kg, mean, n=2, 5 mg/kg oral microsuspension, values normalized to 2 mg/kg, read-out: Cmax): 1220 ng/mL | AUC(0-t) [1, 13]: 10400 ng·h/mL | concentration at 24 h [1, 13]: 123 ng/mL | Cmax ([1]; beagle, dog, plasma, po, 5 mg/kg, mean, n=2, single oral 5 mg/kg by gavage as microsuspension, fed dogs, read-out: Cmax): 3050 ng/mL | F ([1]; mean, n=2, 5 mg/kg oral microsuspension, values normalized to 2 mg/kg): 24.5% | reversible uptake of water (DVS) [2]: 0.8 %-w/w
Structure (SMILES): Cc1cc(F)ccc1-c1cc(N2CCS(=O)(=O)CC2)ncc1N(C)C(=O)C(C)(C)c1cc(C(F)(F)F)cc(C(F)(F)F)c1 [amorphous material, 2-(3,5-bis-trifluoromethyl-phenyl)-N-[6-(1,1-dioxo-1λ^6-thiomorpholin-4-yl)-4-(4-fluoro-2-methyl-phenyl)-pyridin-3-yl]-N-methyl-isobutyramide]

Source: patent US7160881B2, “Crystalline modifications of 2-(3,5-bis-trifluoromethyl-phenyl)-N-[6-(1,1-dioxo-1 λ6-thiomorpholin-4-yl)-4-(4-fluoro-2-methyl-phenyl)-pyridin-3-yl]-N-methyl-isobutyramide” (Hoffmann-La Roche Inc., priority 2003, dated 2007)
